# US11407979B2, “Intermittent starvation techniques to prolong functional lifetime of liver cells in culture” (Colorado State University Research Foundation, priority 2017, dated 2022)
# Experiments:
# [1] = tested on: primary human hepatocytes in micropatterned co-cultures (MPCCs)
# [2] = tested on: primary human hepatocytes in micropatterned co-cultures (MPCCs); assay: Hepatocyte island area (phase contrast) and polarization (CDCFDA bile canaliculi staining) in MPCCs; assay type: cell-based; conditions: metformin treated versus non-starved control MPCCs
# [3] = tested on: 3T3-J2 fibroblasts; assay: Fibroblast density in MPCCs, live cell imaging of nuclei (Hoechst 33342); assay type: cell-based, murine; conditions: metformin treated MPCCs, 4 weeks of culture
smiles,measurement,setting,value
Cc1c(C)c2c(c(C)c1O)CCC(C)(COc1ccc(CC3SC(=O)NC3=O)cc1)O2 (stereo not drawn) [troglitazone],"TC50 values for albumin production, non-starved cells compared with starved cells",[1],similar
same,"TC50 values for urea production, non-starved cells compared with starved cells",[1],similar
C[C@]12C=CC(=O)C=C1CC[C@@H]1[C@@H]2C(=O)C[C@@]2(C)[C@H]1CC[C@]2(O)C(=O)CO [prednisone],identified as toxic (albumin or urea below 50% of DMSO control),[1],toxic
CN1C(C(=O)Nc2ccccn2)=C(O)c2ccccc2S1(=O)=O [piroxicam],"TC50 values for albumin production, non-starved cells compared with starved cells",[1],similar
same,"TC50 values for urea production, non-starved cells compared with starved cells",[1],similar
Clc1ccc(COC(Cn2ccnc2)c2ccc(Cl)cc2Cl)c(Cl)c1 (stereo not drawn) [miconazole],identified as toxic (albumin or urea below 50% of DMSO control),[1],toxic
CN(C)C(=N)N=C(N)N [metformin],hepatocyte island area,[2],not significantly higher
same,hepatocyte polarization,[2],not significantly higher
same,fibroblast numbers,[3],did not change
